Results taken from patent US20160375006A1, “USES OF PARALOG-SELECTIVE INHIBITORS OF GSK3 KINASES” (priority 2012, published 2016).
Like-named read-outs stand apart in the source and are kept apart here.

What was measured:
CDK2/CycA2 = CDK2/CycA2 (Homo sapiens, UniProt P24941)
Experimental: (§1) This was completed utilizing one of two assays depending on the kinase being examined.
(§2) A solution of IMAP binding reagent (IMAP Screening Express kit; Molecular Devices) (60 μL) was added to each well and incubated for 30 minutes.
(§3) A solution of termination buffer (QuickScout Screening assist MSA; Carna Biosciences) (60 μL) was added to each well. The entire reaction mixture was then applied to a LabChip3000 system (Caliper Life Science) and the product and substrate peptide peaks were separated and quantified.
(§4) The assay utilized was identical to that of the single point inhibitory activity determination (MSA) but run in dose response. […] A solution of termination buffer (QuickScout Screening assist MSA; Carna Biosciences) (60 μL) was added to each well. The entire reaction mixture was then applied to a LabChip3000 system (Caliper Life Science) and the product and substrate peptide peaks were separated and quantified.

PAK2 = PAK2 (Homo sapiens, UniProt Q13177)
Experimental: as §1, §2, §3, §4

AurA = AurA (Homo sapiens, UniProt O14965)
Experimental: as §1, §3
(§5) The assay utilized was identical to that of the single point inhibitory activity determination (MSA) but run in dose response.

CK1α = CK1α (Homo sapiens, UniProt P48729)
Experimental: as §1, §3, §5

MAP2K6_Cascade = MAP2K6_Cascade (Homo sapiens, UniProt P52564)
Experimental: as §1, §2, §3, §4

JAK3 = JAK3 (Homo sapiens, UniProt P52333)
Experimental: as §1, §2, §3, §4

IRR = IRR (Homo sapiens, UniProt P14616)
Experimental: as §1, §2, §3, §4

PKD3 = PKD3 (Homo sapiens, UniProt O94806)
Experimental: as §1, §2, §3

NPM1-ALK = NPM1-ALK (Homo sapiens, UniProt Q9UM73)
Experimental: as §1, §2, §3

MARK4 = MARK4 (Homo sapiens, UniProt Q96L34)
Experimental: as §1, §2, §3, §4

ALK = ALK (Homo sapiens, UniProt Q9UM73)
Experimental: as §1, §2, §3

SGK2 = SGK2 (Homo sapiens, UniProt Q9HBY8)
Experimental: as §1, §2, §3, §4

CK1ε = CK1ε (Homo sapiens, UniProt P49674)
Experimental: as §1, §2, §3

TEC = TEC (Homo sapiens, UniProt P42680)
Experimental: as §1, §2, §3, §4

DLK_Cascade = DLK_Cascade (Homo sapiens, UniProt Q12852)
Experimental: as §1, §2, §3, §4

EGFR(L861Q) = EGFR(L861Q) (Homo sapiens, UniProt P00533, L861Q)
Experimental: as §1, §2, §3, §4

PGK = PGK (Homo sapiens, UniProt Q13976)
Experimental: as §1, §2, §3, §4

skMLCK = skMLCK (Homo sapiens, UniProt Q9H1R3)
Experimental: as §1, §2, §3, §4

EPHA2 = EPHA2 (Homo sapiens, UniProt P29317)
Experimental: as §1, §2, §3, §4

FLT1 = FLT1 (Homo sapiens, UniProt P17948)
Experimental: as §1, §2, §3, §4

CLK2 = CLK2 (Homo sapiens, UniProt P49760)
Experimental: as §1, §2, §3, §4

MRCKα = MRCKα (Homo sapiens, UniProt Q5VT25)
Experimental: as §1, §2, §3, §4

PKCη = PKCη (Homo sapiens, UniProt P24723)
Experimental: as §1, §2, §3, §4

EGFR(L858R) = EGFR(L858R) (Homo sapiens, UniProt P00533, L858R)
Experimental: as §1, §2, §3, §4

TNK1 = TNK1 (Homo sapiens, UniProt Q13470)
Text: as §1, §5

IKKε = IKKε (Homo sapiens, UniProt Q14164)
Experimental: as §1, §2, §3, §4

KDR = KDR (Homo sapiens, UniProt P35968)
Experimental: as §1, §2, §3, §4

Haspin = Haspin (Homo sapiens, UniProt Q8TF76)
Experimental: as §1, §2, §3, §4

MNK1 = MNK1 (Homo sapiens, UniProt Q9BUB5)
Experimental: as §1, §2, §3, §4

MARK3 = MARK3 (Homo sapiens, UniProt P27448)
Experimental: as §1, §2, §3, §4

AurA/TPX2 = AurA/TPX2 (Homo sapiens, UniProt O14965)
Experimental: as §1, §2, §3, §4

ROCK2 = ROCK2 (Homo sapiens, UniProt O75116)
Experimental: as §1, §2, §3

CDC7/ASK = CDC7/ASK (Homo sapiens, UniProt O00311)
Experimental: as §1, §2, §3, §4

CDK4/CycD3 = CDK4/CycD3 (Homo sapiens, UniProt P11802)
Experimental: as §1, §2, §3

NDR2 = NDR2 (Homo sapiens, UniProt Q9Y2H1)
Experimental: as §1, §2, §3, §4

EPHB1 = EPHB1 (Homo sapiens, UniProt P54762)
Experimental: as §1, §2, §3, §4

PAK6 = PAK6 (Homo sapiens, UniProt Q9NQU5)
Experimental: as §1, §2, §3, §4

HER2 = HER2 (Homo sapiens, UniProt P04626)
Experimental: as §1, §2, §3, §4

CK1γ2 = CK1γ2 (Homo sapiens, UniProt P78368)
Experimental: as §1, §2, §3, §4

SPHK1 = SPHK1 (Homo sapiens, UniProt Q9NYA1)
Sequence of SPHK1 (Q9NYA1 whole entry): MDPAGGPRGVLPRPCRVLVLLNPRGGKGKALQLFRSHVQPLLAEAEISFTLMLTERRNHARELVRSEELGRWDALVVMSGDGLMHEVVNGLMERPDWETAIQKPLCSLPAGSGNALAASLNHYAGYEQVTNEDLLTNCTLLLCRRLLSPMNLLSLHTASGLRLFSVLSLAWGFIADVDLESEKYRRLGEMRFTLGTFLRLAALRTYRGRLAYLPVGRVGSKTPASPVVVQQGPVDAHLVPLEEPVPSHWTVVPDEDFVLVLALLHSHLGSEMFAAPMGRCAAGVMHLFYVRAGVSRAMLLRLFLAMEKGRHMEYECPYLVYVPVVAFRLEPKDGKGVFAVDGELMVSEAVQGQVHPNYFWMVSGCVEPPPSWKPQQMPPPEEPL
Experimental: as §1, §2, §3, §4

Sequence of AurA/TPX2 (O14965 whole entry): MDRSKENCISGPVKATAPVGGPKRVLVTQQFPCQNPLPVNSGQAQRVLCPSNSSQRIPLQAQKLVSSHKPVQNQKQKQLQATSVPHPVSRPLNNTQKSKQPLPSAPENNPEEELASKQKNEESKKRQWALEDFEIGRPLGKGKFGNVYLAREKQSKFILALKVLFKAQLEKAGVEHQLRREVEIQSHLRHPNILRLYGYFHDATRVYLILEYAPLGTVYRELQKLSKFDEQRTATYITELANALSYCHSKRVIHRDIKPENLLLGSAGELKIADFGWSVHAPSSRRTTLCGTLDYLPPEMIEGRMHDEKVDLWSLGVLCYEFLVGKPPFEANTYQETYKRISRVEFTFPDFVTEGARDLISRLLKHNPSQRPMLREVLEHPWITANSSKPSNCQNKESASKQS
Sequence of AurA/TPX2 (Q9ULW0 1-43 partner limits assumed): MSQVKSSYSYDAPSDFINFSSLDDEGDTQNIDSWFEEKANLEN
Sequence of AurA (O14965 whole entry): as the sequence (O14965 whole entry) above
Sequence of PKD3 (O94806 whole entry): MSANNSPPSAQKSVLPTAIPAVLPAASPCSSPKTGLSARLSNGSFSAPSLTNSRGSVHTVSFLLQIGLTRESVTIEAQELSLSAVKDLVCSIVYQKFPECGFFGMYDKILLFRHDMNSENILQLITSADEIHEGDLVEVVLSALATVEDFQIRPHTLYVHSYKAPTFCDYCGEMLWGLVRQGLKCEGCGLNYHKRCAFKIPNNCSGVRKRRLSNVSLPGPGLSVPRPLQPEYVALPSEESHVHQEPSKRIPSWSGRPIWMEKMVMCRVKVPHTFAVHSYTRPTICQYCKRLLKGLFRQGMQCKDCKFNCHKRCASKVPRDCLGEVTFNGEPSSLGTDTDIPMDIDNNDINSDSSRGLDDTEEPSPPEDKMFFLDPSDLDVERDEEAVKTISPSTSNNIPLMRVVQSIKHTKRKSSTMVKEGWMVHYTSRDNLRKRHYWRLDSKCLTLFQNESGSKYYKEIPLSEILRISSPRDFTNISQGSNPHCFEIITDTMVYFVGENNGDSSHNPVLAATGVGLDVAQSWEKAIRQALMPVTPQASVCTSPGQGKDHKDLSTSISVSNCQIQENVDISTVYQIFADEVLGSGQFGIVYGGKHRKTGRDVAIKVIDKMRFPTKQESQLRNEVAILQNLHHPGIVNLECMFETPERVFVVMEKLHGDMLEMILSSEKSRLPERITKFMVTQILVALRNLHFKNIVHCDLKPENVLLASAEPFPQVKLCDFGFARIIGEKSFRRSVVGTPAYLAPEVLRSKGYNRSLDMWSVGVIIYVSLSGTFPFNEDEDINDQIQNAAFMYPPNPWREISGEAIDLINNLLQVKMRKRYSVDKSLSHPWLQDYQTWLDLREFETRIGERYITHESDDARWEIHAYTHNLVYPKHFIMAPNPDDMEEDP
Sequence of PAK2 (Q13177 whole entry): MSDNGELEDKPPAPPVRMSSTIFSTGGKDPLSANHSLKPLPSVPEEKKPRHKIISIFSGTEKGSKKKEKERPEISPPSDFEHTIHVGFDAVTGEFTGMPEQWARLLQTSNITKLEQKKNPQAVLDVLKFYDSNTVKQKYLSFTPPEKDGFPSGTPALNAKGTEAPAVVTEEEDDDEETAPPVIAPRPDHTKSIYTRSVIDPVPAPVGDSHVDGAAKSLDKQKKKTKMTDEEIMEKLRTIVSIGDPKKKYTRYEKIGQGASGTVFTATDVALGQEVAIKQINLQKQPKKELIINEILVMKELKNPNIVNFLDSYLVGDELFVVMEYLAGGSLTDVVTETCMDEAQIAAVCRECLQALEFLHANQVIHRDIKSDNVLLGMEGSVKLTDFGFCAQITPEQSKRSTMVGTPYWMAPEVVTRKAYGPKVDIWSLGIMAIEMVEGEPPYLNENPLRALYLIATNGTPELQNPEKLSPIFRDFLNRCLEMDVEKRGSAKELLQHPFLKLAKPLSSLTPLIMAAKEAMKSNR
Sequence of TEC (P42680 whole entry): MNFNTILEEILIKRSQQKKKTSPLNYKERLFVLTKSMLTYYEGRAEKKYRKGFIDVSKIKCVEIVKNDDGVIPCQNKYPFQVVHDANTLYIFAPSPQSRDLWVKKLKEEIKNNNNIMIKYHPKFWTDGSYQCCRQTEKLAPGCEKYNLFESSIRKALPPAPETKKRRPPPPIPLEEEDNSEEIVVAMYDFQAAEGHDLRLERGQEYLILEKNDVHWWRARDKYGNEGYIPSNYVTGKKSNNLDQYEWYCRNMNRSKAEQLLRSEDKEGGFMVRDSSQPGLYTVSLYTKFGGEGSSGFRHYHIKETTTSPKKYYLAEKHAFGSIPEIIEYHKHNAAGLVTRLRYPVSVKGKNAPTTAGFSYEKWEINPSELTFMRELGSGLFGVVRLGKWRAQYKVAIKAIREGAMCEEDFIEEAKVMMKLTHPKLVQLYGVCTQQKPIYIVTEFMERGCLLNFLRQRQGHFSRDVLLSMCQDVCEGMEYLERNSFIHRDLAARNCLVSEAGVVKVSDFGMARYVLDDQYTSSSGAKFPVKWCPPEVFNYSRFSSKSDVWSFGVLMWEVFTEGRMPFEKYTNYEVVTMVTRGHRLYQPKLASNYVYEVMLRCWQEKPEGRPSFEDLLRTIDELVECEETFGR
Sequence of IKKε (Q14164 whole entry): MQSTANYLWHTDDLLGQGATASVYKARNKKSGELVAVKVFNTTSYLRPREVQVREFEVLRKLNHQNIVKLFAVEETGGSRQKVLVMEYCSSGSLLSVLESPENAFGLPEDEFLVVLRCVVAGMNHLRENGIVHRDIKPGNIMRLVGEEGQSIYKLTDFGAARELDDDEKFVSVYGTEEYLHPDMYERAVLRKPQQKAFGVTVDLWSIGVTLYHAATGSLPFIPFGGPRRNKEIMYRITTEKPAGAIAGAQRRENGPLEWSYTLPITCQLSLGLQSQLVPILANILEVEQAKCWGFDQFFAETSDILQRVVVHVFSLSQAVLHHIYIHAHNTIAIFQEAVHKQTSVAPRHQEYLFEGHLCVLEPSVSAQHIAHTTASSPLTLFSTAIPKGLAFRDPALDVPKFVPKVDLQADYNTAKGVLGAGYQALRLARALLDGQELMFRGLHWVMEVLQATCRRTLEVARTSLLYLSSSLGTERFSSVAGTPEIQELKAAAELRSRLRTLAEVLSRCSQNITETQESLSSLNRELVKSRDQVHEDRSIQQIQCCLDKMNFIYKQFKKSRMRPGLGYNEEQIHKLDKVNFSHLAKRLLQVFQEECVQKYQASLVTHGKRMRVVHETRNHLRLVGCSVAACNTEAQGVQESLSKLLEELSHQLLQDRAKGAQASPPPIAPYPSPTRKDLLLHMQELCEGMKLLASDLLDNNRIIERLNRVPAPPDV
Sequence of SGK2 (Q9HBY8 whole entry): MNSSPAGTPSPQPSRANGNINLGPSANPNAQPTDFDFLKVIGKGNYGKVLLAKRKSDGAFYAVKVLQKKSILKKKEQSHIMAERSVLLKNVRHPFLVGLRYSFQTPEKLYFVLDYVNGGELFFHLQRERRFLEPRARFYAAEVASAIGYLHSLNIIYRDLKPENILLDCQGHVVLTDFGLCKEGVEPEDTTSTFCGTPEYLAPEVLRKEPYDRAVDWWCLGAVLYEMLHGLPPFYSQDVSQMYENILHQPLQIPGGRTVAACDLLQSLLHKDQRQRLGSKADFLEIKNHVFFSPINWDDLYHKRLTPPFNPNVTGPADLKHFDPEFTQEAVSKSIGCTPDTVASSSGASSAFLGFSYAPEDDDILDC
Sequence of NPM1-ALK (Q9UM73 with tags, fused parts or gaps): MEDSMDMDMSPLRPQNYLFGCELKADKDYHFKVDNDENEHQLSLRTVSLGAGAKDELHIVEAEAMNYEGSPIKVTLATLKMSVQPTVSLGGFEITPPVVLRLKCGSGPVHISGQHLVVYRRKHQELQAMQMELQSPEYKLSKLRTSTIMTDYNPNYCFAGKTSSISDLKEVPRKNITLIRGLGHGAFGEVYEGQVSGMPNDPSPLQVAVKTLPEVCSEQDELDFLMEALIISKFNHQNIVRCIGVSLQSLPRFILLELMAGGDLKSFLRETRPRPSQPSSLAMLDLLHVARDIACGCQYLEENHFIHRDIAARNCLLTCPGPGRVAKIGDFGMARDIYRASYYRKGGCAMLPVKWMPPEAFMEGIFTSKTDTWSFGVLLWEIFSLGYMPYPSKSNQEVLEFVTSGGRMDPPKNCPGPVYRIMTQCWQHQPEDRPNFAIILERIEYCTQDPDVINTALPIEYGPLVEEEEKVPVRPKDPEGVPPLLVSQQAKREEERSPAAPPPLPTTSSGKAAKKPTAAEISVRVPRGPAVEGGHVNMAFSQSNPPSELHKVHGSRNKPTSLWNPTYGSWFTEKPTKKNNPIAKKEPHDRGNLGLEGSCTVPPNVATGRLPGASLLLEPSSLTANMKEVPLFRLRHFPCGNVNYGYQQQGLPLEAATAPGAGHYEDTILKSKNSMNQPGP
Experimental for MAP3K2_Cascade: as §1, §2, §3, §4

CC[C@@]1(c2ccccc2)C2=C(CC(C)(C)CC2=O)Nc2n[nH]cc21 [BRD0705]
% Inhibition at 10 μM (CDK2/CycA2; CDK2/CycA2): 65.3% | IC50 (CDK2/CycA2; read-out: IC50 CDK2/CycA2): 6.87 µM | % Inhibition at 10 μM (PAK2): 6.4% | % Inhibition at 10 μM (AurA): 6.1% | % Inhibition at 10 μM (CK1α): 6.0% | % Inhibition at 10 μM (MAP2K6_Cascade): 4.2% | % Inhibition at 10 μM (JAK3): 4.1% | % Inhibition at 10 μM (IRR): 4.0% | % Inhibition at 10 μM (PKD3): 3.9% | % Inhibition at 10 μM (NPM1-ALK): 3.7% | % Inhibition at 10 μM (MARK4): 2.0% | % Inhibition at 10 μM (ALK): 1.1% | % Inhibition at 10 μM (MAP3K2_Cascade): 1.0% | % Inhibition at 10 μM (SGK2): 0.8% | % Inhibition at 10 μM (CK1ε): −0.4% | % Inhibition at 10 μM (TEC): −0.4% | % Inhibition at 10 μM (DLK_Cascade): −1.1% | % Inhibition at 10 μM (EGFR(L861Q)): −1.8% | % Inhibition at 10 μM (PGK): −2.1% | % Inhibition at 10 μM (skMLCK): −2.5% | % Inhibition at 10 μM (EPHA2): −2.6% | % Inhibition at 10 μM (FLT1): −2.6% | % Inhibition at 10 μM (CLK2): −3.0% | % Inhibition at 10 μM (MRCKα): −3.8% | % Inhibition at 10 μM (PKCη): −4.0% | % Inhibition at 10 μM (EGFR(L858R)): −4.0% | % Inhibition at 10 μM (TNK1): −4.0% | % Inhibition at 10 μM (IKKε): −4.5% | % Inhibition at 10 μM (KDR): −4.8% | % Inhibition at 10 μM (Haspin): −5.1% | % Inhibition at 10 μM (MNK1): −5.2% | % Inhibition at 10 μM (MARK3): −5.3% | % Inhibition at 10 μM (AurA/TPX2): −5.3% | % Inhibition at 10 μM (ROCK2): −5.8% | % Inhibition at 10 μM (CDC7/ASK): −7.2% | % Inhibition at 10 μM (CDK4/CycD3): −9.1% | % Inhibition at 10 μM (NDR2): −9.9% | % Inhibition at 10 μM (EPHB1): −9.9% | % Inhibition at 10 μM (PAK6): −10.7% | % Inhibition at 10 μM (HER2): −11.1% | % Inhibition at 10 μM (CK1γ2): −11.8% | % Inhibition at 10 μM (SPHK1): −20.5%

CC(C)(C)Cc1[nH]nc2c1[C@](C)(c1ccccc1)C1=C(CC(C)(C)CC1=O)N2 [BRD3731]
IC50 (CDK2/CycA2; CDK2/CycA2): > 10 µM | % Inhibition 10 μM (CDK2/CycA2; CDK2/CycA2, 10 μM): 36.3% | Fold Selectivity (CDK2/CycA2; IC50 CDK2/CycA2 / IC50 GSK3β): >370 fold | % Inhibition 10 μM (PAK2; 10 μM): 0.0% | % Inhibition 10 μM (AurA; 10 μM): 15.4% | % Inhibition 10 μM (CK1α; 10 μM): −5.6% | % Inhibition 10 μM (MAP2K6_Cascade; 10 μM): 3.3% | % Inhibition 10 μM (JAK3; 10 μM): 7.8% | % Inhibition 10 μM (IRR; 10 μM): 6.2% | % Inhibition 10 μM (PKD3; 10 μM): 2.6% | % Inhibition 10 μM (NPM1-ALK; 10 μM): −2.1% | % Inhibition 10 μM (MARK4; 10 μM): 22.7% | % Inhibition 10 μM (ALK; 10 μM): 3.0% | % Inhibition 10 μM (MAP3K2_Cascade; 10 μM): −0.7% | % Inhibition 10 μM (SGK2; 10 μM): 10.4% | % Inhibition 10 μM (CK1ε; 10 μM): 28.0% | % Inhibition 10 μM (TEC; 10 μM): 2.3% | % Inhibition 10 μM (DLK_Cascade; 10 μM): 0.9% | % Inhibition 10 μM (EGFR(L861Q); 10 μM): 2.7% | % Inhibition 10 μM (PGK; 10 μM): 1.9% | % Inhibition 10 μM (skMLCK; 10 μM): 9.4% | % Inhibition 10 μM (EPHA2; 10 μM): 3.2% | % Inhibition 10 μM (FLT1; 10 μM): 3.2% | % Inhibition 10 μM (CLK2; 10 μM): 6.1% | % Inhibition 10 μM (MRCKα; 10 μM): 4.3% | % Inhibition 10 μM (PKCη; 10 μM): −5.8% | % Inhibition 10 μM (EGFR(L858R); 10 μM): −1.2% | % Inhibition 10 μM (TNK1; 10 μM): −6.7% | % Inhibition 10 μM (IKKε; 10 μM): −1.4% | % Inhibition 10 μM (KDR; 10 μM): 7.1% | % Inhibition 10 μM (Haspin; 10 μM): 5.3% | % Inhibition 10 μM (MNK1; 10 μM): −4.1% | % Inhibition 10 μM (MARK3; 10 μM): −2.1% | % Inhibition 10 μM (AurA/TPX2; 10 μM): 3.8% | % Inhibition 10 μM (ROCK2; 10 μM): −0.5% | % Inhibition 10 μM (CDC7/ASK; 10 μM): −3.1% | % Inhibition 10 μM (CDK4/CycD3; 10 μM): 18.1% | % Inhibition 10 μM (NDR2; 10 μM): −3.2% | % Inhibition 10 μM (EPHB1; 10 μM): 2.7% | % Inhibition 10 μM (PAK6; 10 μM): −46.8% | % Inhibition 10 μM (HER2; 10 μM): 3.8% | % Inhibition 10 μM (CK1γ2; 10 μM): 3.6% | % Inhibition 10 μM (SPHK1; 10 μM): 3.4%
